Test results taken from patent publication US12686668B2, “Leukotriene synthesis inhibitors” (Naegis Pharmaceuticals Inc., priority 2019, dated 2026).

Tests used:
[1] = tested on: LTC4 production in MC/9 cells; assay: MC/9 HPLC assay, inhibition of LTC4 production; assay type: cell-based; details: Mus musculus; for inhibition at 3 µM: MC9, 3 μM, A23187 stimulated; for inhibition at 1 µM: MC9, Table 2 column 3, no concentration in head (1 μM according to b732), read-out: % Inhibition LTC4
Description: (§1) Cultured MC/9 cells (3×10^6 cells) in 1 mL HBSS were pre-incubated with a series of concentrations of compound solubilized in DMSO for 30 minutes. Production of leukotrienes were stimulated with the addition of 1 μM calcium ionophore (A23187), diluted from a 4 mM DMSO stock in HBSS, and incubated at room temperature for 20 minutes. The reaction was stopped with the addition of 500 μL of methanol containing 20 ng/mL prostaglandin B2 as an internal standard. Samples were collected and stored at −20° C. at least 2 hr or overnight before centrifuged at 13,000 rpm for 15 minutes and loaded onto C18 SEP-PAK columns (Canadian Lifesciences IS12000) for solid phase extraction. The leukotrienes were analyzed by HPLC using an ACE C18 column (4.5 mm×150 mm, 5 m) eluted with acetonitrile/methanol/water mixture with H3PO4, pH 3.5 (37:26:37) with a flow rate of 1.8 mL/min. The amount of LTB4 (Cayman Chemical, 20110) and LTC4 (Cayman Chemical, 20210) were calculated based on reference standards and the level of inhibition of LTB4 production induced by the test compounds was calculated relative to control samples. The results are provided in Table 2, where Compound No. refers to the compounds identified in Table 1.

[2] = biological target: T1, recombinant human leukotriene A4 hydrolase enzyme (Homo sapiens, UniProt P09960); assay: Amino-peptidase assay, alanine-4-nitroanalide; assay type: biochemical; details: negative values = augmented peptidase activity, read-out: % Inhibition aminopeptidase-Alanine-4-nitroanalide activity of LTA4H (3 μM)
T1 construct: purchased Cayman Chemical 10007817
T1 sequence (P09960 1-611): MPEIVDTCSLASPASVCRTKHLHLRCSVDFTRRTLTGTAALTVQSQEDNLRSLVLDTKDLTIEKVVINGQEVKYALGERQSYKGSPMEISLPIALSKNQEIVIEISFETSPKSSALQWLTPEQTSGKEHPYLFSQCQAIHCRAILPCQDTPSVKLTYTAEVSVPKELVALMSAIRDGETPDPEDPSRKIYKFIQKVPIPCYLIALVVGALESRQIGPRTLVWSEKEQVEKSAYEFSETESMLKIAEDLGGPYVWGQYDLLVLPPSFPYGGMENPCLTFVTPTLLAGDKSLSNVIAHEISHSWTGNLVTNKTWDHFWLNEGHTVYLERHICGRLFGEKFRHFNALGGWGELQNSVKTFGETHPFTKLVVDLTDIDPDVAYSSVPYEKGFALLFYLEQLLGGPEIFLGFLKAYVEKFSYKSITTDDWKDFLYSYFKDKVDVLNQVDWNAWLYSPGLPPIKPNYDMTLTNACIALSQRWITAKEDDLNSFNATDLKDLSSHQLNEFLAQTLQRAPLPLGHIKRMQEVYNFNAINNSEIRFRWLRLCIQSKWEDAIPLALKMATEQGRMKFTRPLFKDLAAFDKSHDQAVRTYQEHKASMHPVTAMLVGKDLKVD
Description: A series of compound concentrations were pre-incubated in the absence of light with 0.5 μg of recombinant human leukotriene A4 hydrolase enzyme (Cayman Chemical 10007817) in 50 μL assay buffer (50 mM Tris-HCl, 100 mM KCl). The reaction was stimulated by adding 50 μL 6 mM alanine-4-nitroanilide (Sigma Aldrich A9325) in assay buffer. The amount of amino-peptidase activity was measured by determining the change in absorbance at 405 nm due to 4-nitroanaline production and comparing the rate of change to a reference standard (Sigma Aldrich 185310). Amino-peptidase activity was compared to control samples and the level of inhibition was calculated. Compounds that augment peptidase activity are represented by negative values.

[3] = tested on: LTB4 production in MC/9 cells; assay: MC/9 HPLC assay, inhibition of LTB4 production; assay type: cell-based; details: Mus musculus, MC9, Table 2 column 4, no concentration in head (1 μM according to b732), read-out: % Inhibition LTB4
Description: as §1

| inhibition at 3 µM [2] [%] | Structure (SMILES) | inhibition at 3 µM [1] [%] | inhibition at 1 µM [1] [%] | inhibition at 1 µM [3] [%] |
| --- | --- | --- | --- | --- |
| < 25 | COc1cc(Oc2nc3ccccc3s2)ccc1C(O)C(F)(F)F (centres unmarked) [Compound 182, 1-{4-[(1,3-benzothiazol-2-yl}oxy]-2-methoxyphenyl}-2,2,2-trifluoroethan-1-ol] | 10 to 30 |  |  |
|  | CC(=O)CCc1ccc(OCc2ccc3ccccc3n2)cc1 [Compound 189, 4-{4-[(quinolinyl-2-yl)methoxy]phenyl}butan-2-one] | 70 to 90 |  |  |
|  | CC(O)(CCc1ccc(Oc2nc3ccccc3s2)cc1)c1ccccc1 (centres unmarked) [Compound 144, 4-[4-(1,3-benzothiazol-2-yloxy)phenyl]-2-phenylbutan-2-ol] |  | 10 to 30 | > 90 |
|  | COc1cc(CCC(=O)c2ccccc2)ccc1Oc1nc2ccccc2s1 [Compound 131, 3-[4-(1,3-benzothiazol-2-yloxy)-3-methoxyphenyl]-1-phenylpropan-1-one] | 50 to 70 |  |  |
|  | CCC(O)(CCc1ccc(Oc2nc3ccccc3s2)c(OC2CCCC2)c1)C(F)(F)F (centres unmarked) [Compound 116, 1-[4-(1,3-benzothiazol-2-yloxy)-3-(cyclopentyloxy)-phenyl]-3-(trifluoromethyl)-pentan-3-ol] |  | < 10 | < 10 |
|  | COc1cc(CCC(c2ccccc2)N2CCCC2)ccc1Oc1nc2ccccc2s1 (centres unmarked) [Compound 134, 2-{2-methoxyl-4-[3-phenyl-3-(pyrrolidin-1-yl)propyl]phenoxy}-1,3-benzothiazole] |  | 10 to 30 | 10 to 30 |
|  | CCOc1cc(CCC(=O)CC)ccc1Oc1nc2ccccc2s1 [Compound 120, 1-[4-(1,3-benzothiazol-2-yloxy)-3-ethoxyphenyl]-pentan-3-one] | 70 to 90 |  |  |
|  | CCC(O)CCc1ccc(Oc2nc3ccccc3s2)c(OC)c1 (centres unmarked) [Compound 196, 1-[4-(1,3-benzothiazol-2-yloxy)-3-methoxyphenyl]pentan-3-ol] | > 90 |  |  |
|  | COc1cc(CCC(C)O)ccc1Oc1nc2ccccc2s1 (centres unmarked) [Compound 122, 4-[4-(1,3-benzothiazol-2-yloxy)-3-methoxyphenyl]-butan-2-ol] |  | 30 to 50 | 30 to 50 |
| < 25 | CCC(=O)CCc1ccc(Oc2nc3ccccc3s2)cc1 [Compound 148, 1-[4-(1,3-benzothiazol-2-yloxy)phenyl]pentan-3-one] |  |  |  |
|  | CCC(=O)CCc1ccc(Oc2nc3ccccc3s2)c(OC)c1 [Compound 101, 1-[4-(1,3-benzothiazol-2-yloxy)-3-methoxyphenyl]pentan-3-one] |  | < 10 | < 10 |
| 50 to 75 | CC(O)(CCc1ccc(Oc2nc3ccccc3s2)c(Cl)c1)C(F)(F)F (centres unmarked) [Compound 175, 4-[4-(1,3-benzothiazol-2-yloxy)-3-chlorophenyl]-1,1,1-trifluoro-2-methylbutan-2-ol] |  |  |  |
|  | CCC(C)(O)CCc1ccc(Oc2nc3ccccc3s2)cc1 (centres unmarked) [Compound 143, 1-[4-(1,3-benzothiazol-2-yloxy)phenyl]-3-methylpentan-3-ol] |  | 10 to 30 | > 90 |
|  | CCOc1cc(CCC(O)(c2ccccc2)C(F)(F)F)ccc1Oc1nc2ccccc2s1 (centres unmarked) [Compound 130, 4-[3-ethoxy-4-(1,3-benzothiazol-2-yloxy)phenyl]-1,1,1-trifluoro-2-phenylbutan-2-ol] |  | < 10 | 10 to 30 |
|  | CCC(C)(O)CCc1ccc(Oc2nc3ccccc3o2)c(OC)c1 (centres unmarked) [Compound 127, 1-[4-(1,3-benzoxazol-2-yloxy)-3-methoxyphenyl]-3-methylpentan-3-ol] |  | < 10 | < 10 |
|  | COc1cc(CCC(C)(C)O)ccc1Oc1nc2ccccc2o1 [Compound 126, 4-[4-(1,3-benzoxazol-2-yloxy)-3-methoxyphenyl]-2-methylbutan-2-ol] |  | < 10 | 10 to 30 |
|  | Cc1nc2ccc(Oc3ccc(C(C)O)cc3)cc2s1 (centres unmarked) [Compound 171, 1-{4-[(2-methyl-1,3-benzothiazol-6-yl)oxy]phenyl}ethanol] | 70 to 90 |  |  |

| inhibition at 3 µM [2] [%] | Structure (SMILES) | inhibition at 3 µM [1] [%] | inhibition at 1 µM [1] [%] | inhibition at 1 µM [3] [%] |
| --- | --- | --- | --- | --- |
| < 25 | CSc1cccc2sc(Oc3ccc(C(C)O)cc3)nc12 (centres unmarked) [Compound 176, 1-(4-{[4-(methylsulfanyl)-1,3-benzothiazol-2-yl]oxy}phenyl)ethanol] | < 10 |  |  |
| 50 to 75 | CC(O)c1ccc(Oc2nc3c(F)cc(F)cc3s2)cc1 (centres unmarked) [Compound 180, 1-{4-[(4,6-difluoro-1,3-benzothiazol-2-yl)oxy]phenyl}ethanol] | < 10 |  |  |
|  | CC(=O)c1ccc(Oc2nc3ccccc3s2)cc1 [Compound 159, 1-[4-(1,3-benzothiazol-2-yloxy)phenyl]ethanone] | 10 to 30 |  |  |
|  | CCC(C)(O)c1ccc(Oc2nc3ccccc3s2)cc1 (centres unmarked) [Compound 161, 2-[4-(1,3-benzothiazol-2-yloxy)phenyl]butan-2-ol] | < 10 |  |  |
|  | CC(O)(CCc1ccc(Oc2nc3ccccc3s2)cc1)C(F)(F)F (centres unmarked) [Compound 140, 4-[4-(1,3-benzothiazol-2-yloxy)phenyl]-1,1,1-trifluoro-2-methylbutan-2-ol] |  | < 10 | < 10 |
|  | CCNC(c1ccc(Oc2nc3ccccc3s2)cc1)C(F)(F)F (centres unmarked) [Compound 168, 1-[4-(1,3-benzothiazol-2-yloxy)phenyl]-N-ethyl-2,2,2-trifluoroethanamine] | < 10 |  |  |
|  | COc1cc(CCC(C)(O)C(F)(F)F)ccc1Oc1nc2ccccc2s1 (centres unmarked) [Compound 111, 4-[4-(1,3-benzothiazol-2-yloxy)-3-methoxyphenyl]-1,1,1-trifluoro-2-methylbutan-2-ol] | 70 to 90 |  |  |
|  | CC(c1ccc(Oc2nc3ccccc3s2)cc1)N1CCCC1 (centres unmarked) [Compound 162, 2-{4-[1-(pyrrolidin-1-yl)ethyl]phenoxy}-1,3-benzothiazole] | < 10 |  |  |
|  | COc1cc(CCC(C)=O)ccc1Oc1nc2ccccc2s1 [Compound 110, 4-[4-(1,3-benzothiazol-2-yloxy)-3-methoxyphenyl]butan-2-one] |  | < 10 | < 10 |
|  | COc1cc(CCC(O)(c2ccccc2)C(F)(F)F)ccc1Oc1nc2ccccc2s1 (centres unmarked) [Compound 133, 3-[4-(1,3-benzothiazol-2-yloxy)-3-methoxyphenyl]-1-(trifluoromethyl)-1-phenylpropan-1-ol] |  | < 10 | 30 to 50 |
|  | CCC(O)(CCc1ccc(Oc2nc3ccccc3s2)c(Cl)c1)C(F)(F)F (centres unmarked) [Compound 151, 1-[4-(1,3-benzothiazol-2-yloxy)-3-chlorophenyl]-3-(trifluoromethyl)pentan-3-ol] |  | 10 to 30 | 10 to 30 |
|  | Cc1nc2ccc(Oc3ccc(C(C)(O)C(F)(F)F)cc3)cc2s1 (centres unmarked) [Compound 170, 1,1,1-trifluoro-2-{4-[(2-methyl-1,3-benzothiazol-6-yl)oxy]phenyl}propan-2-ol] | > 90 |  |  |
|  | CCC(N)CCc1ccc(Oc2nc3ccccc3s2)c(OC)c1 (centres unmarked) [Compound 135, 1-[4-(1,3-benzothiazol-2-yloxy)-3-methoxyphenyl]pentan-3-amine] |  | 10 to 30 | 30 to 50 |
|  | COc1cc(CCC(C)(C)O)ccc1Oc1nc2ccccc2s1 [Compound 124, 4-[4-(1,3-benzothiazol-2-yloxy)-3-methoxyphenyl]-2-methylbutan-2-ol] |  | 10 to 30 |  |
| > 75 | CC(C)(O)c1ccc(Oc2nc3ccccc3s2)cc1 [Compound 177, 2-[4-(1,3-benzothiazol-2-yloxy)phenyl]propan-2-ol] |  |  |  |
|  | CCC(CCc1ccc(Oc2nc3ccccc3s2)c(OC)c1)N1CCOCC1 (centres unmarked) [Compound 136, 4-{1-[3-methoxy-4-(1,3-benzothiazol-2-yloxy)phenyl]pentan-3-yl}morpholine] | 10 to 30 |  |  |
